Our source for the SC100 values is US10774064B2 (Cadent Therapeutics, Inc., priority 2016, dated 2020).

SMILES strings stand for the structures.

The assay has as its target T1, small-conductance Ca2+-activated K+ channels (SK channels, subtype 2) (Homo sapiens, UniProt Q9H2S1).
T1 construct: expressed in transfected cells; host or cells: HEK293
Nature of the assay: whole-cell patch-clamp of ionic current through SK2 channels in HEK293 cells (SC100). Type of assay: cell-based. The conditions noted are these: concentration that increases the basal current by 100%; HEK293 cells expressing SK2 channels. In short, it runs like this:
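SC100, the concentration doubling basal current (a 100% increase), was taken from SK2 currents recorded by whole-cell patch-clamp in SK2-expressing HEK293 cells.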
(In general: Patch clamp records ionic current or voltage across a cell membrane.)

As to `Cc1cc(C)n(-c2cc(OCc3nnc(C)o3)cc(NC3CCC(F)(F)CC3)n2)n1` [Compound 261, N-(4,4-difluorocyclohexyl)-6-(3,5-dimethyl-1H-pyrazol-1-yl)-4-((5-methyl-1,3,4-oxadiazol-2-yl)methoxy)pyridin-2-amine], the SC100 entry was “++ (++ means 200 nM-1000 nM)”.
In the case of `Cc1cc(C)n(-c2nc(NC3CCC(F)(F)CC3)cc(C3=CCCOC3)n2)n1` [Compound 262, N-(4,4-difluorocyclohexyl)-6-(5,6-dihydro-2H-pyran-3-yl)-2-(3,5-dimethyl-1H-pyrazol-1-yl)pyrimidin-4-amine], the SC100 result was “++ (++ means 200 nM-1000 nM)”.
Regarding `Cc1cc(C)n(-c2cc(OCc3ccc(F)cc3)cc(NC3CCC(F)(F)CC3)n2)n1` [Compound 263, N-(4,4-difluorocyclohexyl)-6-(3,5-dimethyl-1H-pyrazol-1-yl)-4-((4-fluorobenzyl)oxy)pyridin-2-amine], the SC100 result is “++ (++ means 200 nM-1000 nM)”.
For `COc1ccc(CNc2cc(NC3CCC(F)(F)CC3)nc(-n3nc(C)cc3C)c2)cc1` [Compound 264, N2-(4,4-difluorocyclohexyl)-6-(3,5-dimethyl-1H-pyrazol-1-yl)-N4-(4-methoxybenzyl)pyridine-2,4-diamine] the value was “++ (++ means 200 nM-1000 nM)”; for `Cc1cc(NC2CCC(F)(F)CC2)nc(-n2ccc(C(C)(C)O)n2)c1` [Compound 265, 2-(1-(6-((4,4-difluorocyclohexyl)amino)-4-methylpyridin-2-yl)-1H-pyrazol-3-yl)propan-2-ol], “+ (+ means >1 uM)”.
For `Cc1cc(C)n(-c2cc3c(ncn3C)c(NC3CCC(F)(F)CC3)n2)n1` [Compound 266, N-(4,4-difluorocyclohexyl)-6-(3,5-dimethyl-1H-pyrazol-1-yl)-1-methyl-1H-imidazo[4,5-c]pyridin-4-amine] the value was “++ (++ means 200 nM-1000 nM)”.
Take `Cc1cc(NC2CCC(F)(F)CC2)nc(-c2nc(C3CC3)cs2)n1` [Compound 267, 2-(4-cyclopropylthiazol-2-yl)-N-(4,4-difluorocyclohexyl)-6-methylpyrimidin-4-amine]: the SC100 result was “+ (+ means >1 uM)”.
As for `Cc1cc(C)n(-c2cc(OCc3cnnn3C)cc(NC3CCC(F)(F)CC3)n2)n1` [Compound 268, N-(4,4-difluorocyclohexyl)-6-(3,5-dimethyl-1H-pyrazol-1-yl)-4-((1-methyl-1H-1,2,3-triazol-5-yl)methoxy)pyridin-2-amine], the SC100 entry is given as “++ (++ means 200 nM-1000 nM)”.
For `Cc1cc(NC2CCC(F)(F)CC2)nc(-c2nc(C(F)(F)F)cs2)n1` [Compound 269, N-(4,4-difluorocyclohexyl)-6-methyl-2-(4-(trifluoromethyl)thiazol-2-yl)pyrimidin-4-amine] the value was “+ (+ means >1 uM)”; for `Cc1cc(NC2CCC(F)(F)CC2)nc(-c2nc(CO)cs2)n1` [Compound 270, (2-(4-((4,4-difluorocyclohexyl)amino)-6-methylpyrimidin-2-yl)thiazol-4-yl)methanol], “+ (+ means >1 uM)”; for `Cc1cc(C)n(-c2cc(OCc3ncnn3C)cc(NC3CCC(F)(F)CC3)n2)n1` [Compound 271, N-(4,4-difluorocyclohexyl)-6-(3,5-dimethyl-1H-pyrazol-1-yl)-4-((1-methyl-1H-1,2,4-triazol-5-yl)methoxy)pyridin-2-amine], “++ (++ means 200 nM-1000 nM)”.
For the compound `Cc1cc(C)n(-c2nc(NC3CCC(F)(F)CC3)cc(OCc3ncn(C)n3)n2)n1` [Compound 272], the SC100 result is “+ (+ means >1 uM)”.
As to `Cc1cc(NC2CCC(F)(F)CC2)nc(-c2nc(CF)cs2)n1` [Compound 273, N-(4,4-difluorocyclohexyl)-2-(4-(fluoromethyl)thiazol-2-yl)-6-methylpyrimidin-4-amine], the SC100 result is recorded as “++ (++ means 200 nM-1000 nM)”.
Regarding `Cc1cc(C)n(-c2nc(NC3CCC(F)(F)CC3)cc(OCc3ncnn3C)n2)n1` [Compound 274, N-(4,4-difluorocyclohexyl)-2-(3,5-dimethyl-1H-pyrazol-1-yl)-6-((1-methyl-1H-1,2,4-triazol-5-yl)methoxy)pyrimidin-4-amine], the SC100 result is “+ (+ means >1 uM)”.
Turning to `Cc1cc(C)n(-c2cc(OCc3ncn(C)n3)cc(NC3CCC(F)(F)CC3)n2)n1` [Compound 275, N-(4,4-difluorocyclohexyl)-6-(3,5-dimethyl-1h-pyrazol-1-yl)-4-((1-methyl-1H-1,2,4-triazol-3-yl)methoxy)pyridin-2-amine], the SC100 result is given as “+ (+ means >1 uM)”.
Take `Cc1cc(C)n(-c2cc(O)cc(NC3CCC(F)(F)CC3)n2)n1` [Compound 276, 2-((4,4-difluorocyclohexyl)amino)-6-(3,5-dimethyl-1H-pyrazol-1-yl)pyridin-4-ol]: the SC100 entry is “+ (+ means >1 uM)”.
For the compound `Cc1cc(NC2CCC(F)(F)CC2)nc(-c2nc(C(F)F)cs2)n1` [Compound 277, N-(4,4-difluorocyclohexyl)-2-(4-(difluoromethyl)thiazol-2-yl)-6-methylpyrimidin-4-amine], the SC100 entry is “++ (++ means 200 nM-1000 nM)”.
Consider `Cc1cc(NC2CCC(F)(F)CC2)nc(-c2nc(C(C)C)cs2)n1` [Compound 278, N-(4,4-difluorocyclohexyl)-2-(4-isopropylthiazol-2-yl)-6-methylpyrimidin-4-amine], for which the SC100 result was “++ (++ means 200 nM-1000 nM)”.
Take `CCc1csc(-c2nc(C)cc(NC3CCC(F)(F)CC3)n2)n1` [Compound 279, N-(4,4-difluorocyclohexyl)-2-(4-ethylthiazol-2-yl)-6-methylpyrimidin-4-amine]: the SC100 result is reported as “++ (++ means 200 nM-1000 nM)”.
With `FCc1ccn(-c2nc(NC3CCC(F)(F)CC3)cc(N3CCOCC3)n2)n1` [Compound 280, N-(4,4-difluorocyclohexyl)-2-(3-(fluoromethyl)-1H-pyrazol-1-yl)-6-morpholinopyrimidin-4-amine], the SC100 entry was “+ (+ means >1 uM)”.
For `Cc1cn(-c2nc(NC3CCC(F)(F)CC3)cc(N3CCOCC3)n2)nc1CF` [Compound 281, N-(4,4-difluorocyclohexyl)-2-(3-(fluoromethyl)-4-methyl-1H-pyrazol-1-yl)-6-morpholinopyrimidin-4-amine] the value was “++ (++ means 200 nM-1000 nM)”; for `Cc1cn(-c2nc(NC3CCC(F)(F)CC3)cc(N3CCOCC3)n2)nc1C(F)F` [Compound 282, N-(4,4-difluorocyclohexyl)-2-(3-(difluoromethyl)-4-methyl-1H-pyrazol-1-yl)-6-morpholinopyrimidin-4-amine], “+ (+ means >1 uM)”.
In the case of `FCc1ccn(-c2nc(NC3CCC(F)(F)CC3)cc(N3CCSCC3)n2)n1` [Compound 284, N-(4,4-difluorocyclohexyl)-2-(3-(fluoromethyl)-1H-pyrazol-1-yl)-6-thiomorpholinopyrimidin-4-amine], the SC100 result was “++ (++ means 200 nM-1000 nM)”.
Consider `FCc1ccn(-c2nc(NC3CCC(F)(F)CC3)cc(OC3COC3)n2)n1` [Compound 285, N-(4,4-difluorocyclohexyl)-2-(3-(fluoromethyl)-1H-pyrazol-1-yl)-6-(oxetan-3-yloxy)pyrimidin-4-amine], for which the SC100 result is “+ (+ means >1 uM)”.
To `Cn1cnc2c(NC3CCC(F)(F)CC3)nc(-n3ccc(CF)n3)cc21` [Compound 286, N-(4,4-difluorocyclohexyl)-6-(3-(fluoromethyl)-1H-pyrazol-1-yl)-1-methyl-1H-imidazo[4,5-c]pyridin-4-amine] belongs “+++ (+++ means <200 nM)”; to `CCOC(=O)N1CC(Oc2cc(NC3CCC(F)(F)CC3)nc(-n3ccc(CF)n3)n2)C1` [Compound 287, ethyl 3-((6-((4,4-difluorocyclohexyl)amino)-2-(3-(fluoromethyl)-1H-pyrazol-1-yl)pyrimidin-4-yl)oxy)azetidine-1-carboxylate], “++ (++ means 200 nM-1000 nM)”.
For `CCC(=O)N1CC(Oc2cc(NC3CCC(F)(F)CC3)nc(-n3ccc(CF)n3)n2)C1` [Compound 288, 1-(3-((6-((4,4-difluorocyclohexyl)amino)-2-(3-(fluoromethyl)-1H-pyrazol-1-yl)pyrimidin-4-yl)oxy)azetidin-1-yl)propan-1-one] the value was “++ (++ means 200 nM-1000 nM)”; for `CC(=O)N1CC(Oc2cc(NC3CCC(F)(F)CC3)nc(-n3ccc(CF)n3)n2)C1` [Compound 289, 1-(3-((6-((4,4-difluorocyclohexyl)amino)-2-(3-(fluoromethyl)-1H-pyrazol-1-yl)pyrimidin-4-yl)oxy)azetidin-1-yl)ethan-1-one], “++ (++ means 200 nM-1000 nM)”; for `CC(C)C(=O)N1CC(Oc2cc(NC3CCC(F)(F)CC3)nc(-n3ccc(CF)n3)n2)C1` [Compound 290, 1-(3-((6-((4,4-difluorocyclohexyl)amino)-2-(3-(fluoromethyl)-1H-pyrazol-1-yl)pyrimidin-4-yl)oxy)azetidin-1-yl)-2-methylpropan-1-one], “++ (++ means 200 nM-1000 nM)”.
For `COC(=O)N1CC(Oc2cc(NC3CCC(F)(F)CC3)nc(-n3ccc(CF)n3)n2)C1` [Compound 291, methyl 3-((6-((4,4-difluorocyclohexyl)amino)-2-(3-(fluoromethyl)-1H-pyrazol-1-yl)pyrimidin-4-yl)oxy)azetidine-1-carboxylate] the value was “++ (++ means 200 nM-1000 nM)”; for `CC(C)(C)C(=O)N1CC(Oc2cc(NC3CCC(F)(F)CC3)nc(-n3ccc(CF)n3)n2)C1` [Compound 293, 1-(3-((6-((4,4-difluorocyclohexyl)amino)-2-(3-(fluoromethyl)-1H-pyrazol-1-yl)pyrimidin-4-yl)oxy)azetidin-1-yl)-2,2-dimethylpropan-1-one], “++ (++ means 200 nM-1000 nM)”; for `CC1CN(c2cc(NC3CCC(F)(F)CC3)nc(-n3ccc(CF)n3)n2)CC(C)O1` (centres unmarked) [Compound 294, N-(4,4-difluorocyclohexyl)-6-(2,6-dimethylmorpholino)-2-(3-(fluoromethyl)-1H-pyrazol-1-yl)pyrimidin-4-amine], “++ (++ means 200 nM-1000 nM)”.
